From ChEMBL document CHEMBL4715829, “Heterodimeric Rifampicin-Tobramycin conjugates break intrinsic resistance of Pseudomonas aeruginosa to doxycycline and chloramphenicol in vitro and in a Galleria mellonella in vivo model” (Eur J Med Chem, 2019)

Key:
Format in all cases: functional
Pseudomonas aeruginosa [1] = test: Antibacterial activity against Pseudomonas aeruginosa 262-101856 assessed as reduction in bacterial growth by measuring doxycycline MIC at 8 ug/ml incubated for 18 hrs in presence of doxycycline by broth microdilution assay (reference value: 1024 ug/ml); conditions: dose 8 µg/ml
Pseudomonas aeruginosa [2] = test: Antibacterial activity against Pseudomonas aeruginosa 262-101856 assessed as fractional inhibitory concentration index incubated for 18 hrs in presence of tigecycline by broth microdilution assay
Pseudomonas aeruginosa [3] = test: Potentiation of doxycycline-induced antibacterial activity against Pseudomonas aeruginosa 101243 assessed as fold change in doxycycline MIC at 9.8 uM incubated for 18 hrs in presence of doxycycline by broth microdilution assay relative to control
Pseudomonas aeruginosa [4] = test: Antibacterial activity against Pseudomonas aeruginosa 100036 assessed as fractional inhibitory concentration index incubated for 18 hrs in presence of minocycline by broth microdilution assay

Work on NC[C@H]1O[C@H](O[C@H]2[C@H](O)[C@@H](O[C@H]3O[C@H](CO)[C@@H](O)[C@H](N)[C@H]3O)[C@H](N)C[C@@H]2N)[C@H](N)C[C@@H]1O [TOBRAMYCIN] yielded an MIC (Pseudomonas aeruginosa [1]) of 1020 µg/mL.

CO[C@H]1/C=C/O[C@@]2(C)Oc3c(C)c(O)c4c(O)c(c(/C=N/N5CCN(Cc6cn(CCCCCCO[C@@H]7[C@@H](O[C@H]8O[C@H](CO)[C@@H](O)[C@H](N)[C@H]8O)[C@H](N)C[C@H](N)[C@H]7O[C@H]7O[C@H](CN)[C@@H](O)C[C@H]7N)nn6)CC5)c(O)c4c3C2=O)NC(=O)/C(C)=C\C=C\[C@H](C)[C@H](O)[C@@H](C)[C@@H](O)[C@@H](C)[C@H](OC(C)=O)[C@@H]1C.Cl.Cl.Cl.Cl.Cl was tested, and the “fractional inhibitory concentration index (FICI)” value (Pseudomonas aeruginosa [2]) was under 0.19, the “fold change (FC)” value (Pseudomonas aeruginosa [3]) was 4 and the “fractional inhibitory concentration index (FICI)” value (Pseudomonas aeruginosa [4]) was 0.13.
